Reference: PubChem BioAssay (NCI)
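Values below derive from 48-hour exposures of cells grown in 96-well plates, with endpoints linearly interpolated between the two concentrations bracketing the appropriate inhibition level. TGI is the concentration that stops growth completely.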

Columns and labels:
Assay in all cases: inhibition of tumour cell growth, NCI panel, 48 h
[1] = tested on: CCRF-CEM leukemia
[2] = tested on: HS 578T breast
[3] = tested on: PC-3 prostate
[4] = tested on: DMS 273 small cell lung
[5] = tested on: DMS 114 small cell lung
[6] = tested on: KM20L2 colon
[7] = tested on: DLD-1 colon
[8] = tested on: M19-MEL melanoma
[9] = tested on: SNB-78 CNS
[10] = tested on: LXFL 529 NSCLC
[11] = tested on: HOP-18 NSCLC
[12] = tested on: XF 498 CNS

COc1ccc2c(c1)CC[C@@H]1[C@@H]2CC[C@]2(C)/C(=N/OCCN3CCCC3)CC[C@@H]12
TGI [1]: 3.67 µM | TGI [2]: 7.29 µM | TGI [3]: 13.5 µM

N/C(=N\N=C\c1cc2ccccc2s1)c1cnccn1
TGI [1]: > 100 µM | TGI [2]: > 100 µM | TGI [3]: > 100 µM

OC1(c2ccccc2)CC2CCC(C1)N2CCCC(O)(c1ccccc1)c1ccccc1 (stereo not given)
TGI [1]: 30.8 µM | TGI [2]: 18.7 µM | TGI [3]: 16.2 µM

CN1C(=O)N(C)C2(CCN(CC(CC3OCCO3)c3ccc(F)cc3)CC2)C1=O (stereo not given)
TGI [1]: > 100 µM | TGI [2]: > 100 µM | TGI [3]: > 100 µM

O=[N+]([O-])c1ccc(CSc2nn(Cc3ccc([N+](=O)[O-])cc3)cc3ncnc2-3)cc1
TGI [3]: > 100 µM

CN1C(=O)c2ccccc2C(O)(c2ccccc2)C1(O)c1ccccc1 (stereo not given)
TGI [1]: > 100 µM | TGI [2]: > 100 µM | TGI [3]: > 100 µM

Clc1ccc(Nc2ncco2)cc1Cl
TGI [1]: > 10 µM | TGI [2]: > 10 µM | TGI [3]: > 10 µM

O=[N+]([O-])c1cc(Br)cc2cc(Cl)cnc12
TGI [1]: > 100 µM | TGI [2]: > 100 µM | TGI [3]: > 100 µM

CC(=O)Nc1ccc(-c2nnc(SCC(=O)Nc3cccc(C)c3)o2)cc1
TGI [1]: > 100 µM | TGI [4]: 23 µM | TGI [5]: 6.94 µM | TGI [6]: 22 µM | TGI [7]: 23.1 µM | TGI [8]: 24.9 µM | TGI [9]: 31.1 µM | TGI [10]: 22.8 µM | TGI [11]: 29.7 µM

CCCNC1=C2C[C@@H](C)C[C@@H](OC)[C@@H](OC(=O)CCCN)[C@H](C)/C=C(\C)[C@@H](OC(N)=O)[C@H](OC)/C=C\C=C(/C)C(=O)NC(=CC1=O)C2=O
TGI [1]: 6.8 µM | TGI [2]: 60.9 µM | TGI [3]: 26.9 µM

O=C1CC(c2ccc(Cl)cc2)C2(C(=O)NC(=S)NC2=O)C(c2ccc(Cl)cc2)C1 (stereo not given)
TGI [1]: 75.4 µM | TGI [2]: 99.4 µM | TGI [3]: 55.1 µM

COc1ccc(-c2nc(-c3ccc(OC)cc3)n(-c3ccccc3)n2)cc1
TGI [1]: > 100 µM | TGI [2]: > 100 µM | TGI [3]: > 100 µM

NC(Cc1ccc(O)cn1)C(=O)NC(C(=O)O)c1ccccc1 (stereo not given)
TGI [1]: > 100 µM | TGI [2]: > 100 µM | TGI [3]: > 100 µM

CC(C)OP(=O)(OC(C)C)C(=NCCO)NNc1ccc([N+](=O)[O-])cc1
TGI [1]: > 100 µM | TGI [4]: > 100 µM | TGI [12]: > 100 µM | TGI [5]: > 100 µM | TGI [6]: > 100 µM | TGI [7]: > 100 µM | TGI [8]: > 100 µM | TGI [9]: > 100 µM | TGI [10]: > 100 µM

CC(=O)Nc1ccc(NC(=O)CC(=O)Nc2ccc(NC(C)=O)cc2)cc1
TGI [1]: > 100 µM | TGI [2]: > 100 µM | TGI [3]: > 100 µM

c1ccc(-c2cnc(SC(c3ccccc3)c3ccccc3)[nH]2)cc1
TGI [1]: > 100 µM | TGI [2]: > 100 µM | TGI [3]: 84.7 µM

Cc1ccc2nc(N)[nH]c(=O)c2c1Sc1ccncc1
TGI [1]: > 100 µM | TGI [4]: > 100 µM | TGI [12]: > 100 µM | TGI [5]: > 100 µM | TGI [6]: > 100 µM | TGI [7]: > 100 µM | TGI [8]: > 100 µM | TGI [9]: > 100 µM | TGI [10]: > 100 µM | TGI [11]: > 100 µM

O=c1oc2cc(O)ccc2c2[nH]c3cc(O)ccc3c12
TGI [1]: > 100 µM | TGI [4]: 88.6 µM | TGI [12]: 73.6 µM | TGI [5]: 53.8 µM | TGI [6]: > 100 µM | TGI [7]: 74.8 µM | TGI [8]: 98.7 µM | TGI [9]: > 100 µM | TGI [10]: > 100 µM | TGI [11]: > 100 µM

C/C=C1\CC(C(=O)OCC)CCCCCCC1=O (stereo not given)
TGI [1]: > 100 µM | TGI [2]: > 100 µM | TGI [3]: > 100 µM

Cc1nc2cn3c(c2c(=O)[nH]1)CCCCC3
TGI [1]: > 100 µM | TGI [2]: > 100 µM | TGI [3]: > 100 µM

C=CCn1c(-c2cc(C(C)(C)C)c(O)c(C(C)(C)C)c2)cs/c1=N\C(P(=O)(O)O)P(=O)(O)O
TGI [2]: > 100 µM | TGI [3]: > 100 µM

Cc1sc2c(c1C)C(=O)c1cccn1-2
TGI [1]: > 100 µM | TGI [2]: > 100 µM | TGI [3]: > 100 µM

CC(NC(=O)Cc1ccc(OP(=O)(OCc2ccc([N+](=O)[O-])o2)N(C)CCCCCl)cc1)c1ccc(OCC2CCCCC2)c(C(N)=O)c1 (stereo not given)
TGI [1]: 6.14 µM | TGI [3]: 19.6 µM

COC(=O)C1OC(O[C@H]2CC[C@]3(C)[C@H]4CC=C5[C@@H]6CC(C)(C)CC[C@]6(C(=O)OC)CC[C@@]5(C)[C@]4(C)CC[C@H]3C2(C)C)C(O)C(O)C1O (stereo not given in full)
TGI [1]: 23.2 µM | TGI [2]: 46.8 µM | TGI [3]: 28.7 µM

Nc1nc(Cl)cc(NCC2(CO)CCCCC2)n1
TGI [1]: > 100 µM | TGI [2]: > 100 µM | TGI [3]: > 100 µM

COC(CNC(=O)CNC(=O)c1ccc(C(F)(F)F)cc1)OC
TGI [1]: > 100 µM | TGI [2]: > 100 µM | TGI [3]: > 100 µM

C[N+]1=C(c2cccnc2/C=N/O)OCC1(C)C
TGI [1]: > 100 µM | TGI [4]: > 100 µM | TGI [12]: > 100 µM | TGI [5]: > 100 µM | TGI [6]: > 100 µM | TGI [7]: > 100 µM | TGI [8]: > 100 µM | TGI [9]: > 100 µM | TGI [10]: > 100 µM | TGI [11]: > 100 µM

Cn1c(N/N=C/c2ccccc2)nc(-c2ccc3c(c2)OCO3)c(C#N)c1=O
TGI [1]: > 100 µM | TGI [2]: > 100 µM | TGI [3]: > 100 µM

CCO/C(O)=C(/C(=N)N1CCOCC1)C(=O)Nc1cccc(C(F)(F)F)c1
TGI [1]: > 100 µM | TGI [2]: > 100 µM | TGI [3]: > 100 µM

CC(=O)NNc1nc(C)c(C(=O)NNC(=O)C(=O)Nc2ccc(Cl)c([N+](=O)[O-])c2)s1
TGI [1]: 56.8 µM | TGI [12]: > 100 µM | TGI [5]: > 100 µM | TGI [6]: > 100 µM | TGI [8]: > 100 µM | TGI [9]: > 100 µM | TGI [10]: > 100 µM

CCOC(=O)c1c(N2CCCC2)[nH]c(=O)c(C(c2c(O)c(C(=O)OCC)c(N3CCCC3)[nH]c2=O)C(C)C)c1O
TGI [1]: > 100 µM | TGI [2]: > 100 µM | TGI [3]: > 100 µM

COc1ccccc1C1C2=C(COC2=O)Oc2cc3c(cc21)OCO3 (stereo not given)
TGI [1]: 16.8 µM | TGI [2]: 13.3 µM | TGI [3]: > 100 µM

CC(=O)N1C(C(=O)NN2CCOCC2)CSC1c1ccccc1 (stereo not given)
TGI [1]: > 100 µM | TGI [2]: > 100 µM | TGI [3]: > 100 µM

CC(=O)C(N1CCCCC1)C(O)(C(F)(F)F)C(F)(F)F (stereo not given)
TGI [1]: > 100 µM | TGI [2]: > 100 µM | TGI [3]: > 100 µM

CN(C(=O)[C@H](NC(=O)OCc1ccccc1)c1ccccc1)C1CCCCC1N1CCCC1 (stereo not given in full)
TGI [1]: > 100 µM | TGI [2]: 77.2 µM | TGI [3]: > 100 µM

CCOC(=O)COc1cc(-c2ccccc2F)nc2cc3c(cc12)OCO3
TGI [1]: 55.7 µM | TGI [3]: > 100 µM
